Experimental data: publication PMC9866752 (Life, 2023)

Columns and labels:
human Frataxin (FXN) = biological target: T1, human Frataxin (FXN) (Homo sapiens, UniProt Q16595); experiment: NMR 1H-15N SOFAST-HMQC titration, chemical shift perturbation, Hill fit; assay type: binding
T1 construct: D91-A210, N-terminal 6xHis-GST tag cut with thrombin; E. coli BL21; 15N-labelled
T1 sequence (Q16595 91-210): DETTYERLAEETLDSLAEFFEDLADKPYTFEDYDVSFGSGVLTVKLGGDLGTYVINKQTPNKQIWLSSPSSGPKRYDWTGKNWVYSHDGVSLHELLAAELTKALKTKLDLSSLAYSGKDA

[1] = biological target: the molecule itself; experiment: SEC; Sd200/16/600 gel filtration column, last step of the purification; buffer with 50 mM MOPS-Tris pH 8.0, 100 mM KCl, 1% sodium cholate, 10% glycerol, 100 uM TCEP

C=CC1=C(C)c2cc3[nH]c(cc4nc(cc5[nH]c(cc1n2)c(C)c5CCC(=O)O)C(CCC(=O)O)=C4C)c(C)c3C=C [Protoporphyrin IX]
EC50 (human Frataxin (FXN)): 140 µM

B1: human ferrochelatase (residues R65 to L423) (enzyme, UniProt P22830 65-423, looked up)
chain: RKPKTGILMLNMGGPETLGDVHDFLLRLFLDRDLMTLPIQNKLAPFIAKRRTPKIQEQYRRIGGGSPIKIWTSKQGEGMVKLLDELSPNTAPHKYYIGFRYVHPLTEEAIEEMERDGLERAIAFTQYPQYSCSTTGSSLNAIYRYYNQVGRKPTMKWSTIDRWPTHHLLIQCFADHILKELDHFPLEKRSEVVILFSAHSLPMSVVNRGDPYPQEVSATVQKVMERLEYCNPYRLVWQSKVGPMPWLGPQTDESIKGLCERGRKNILLVPIAFTSDHIETLYELDIEYSQVLAKECGVENIRRAESLNGNPLFSKALADLVHSHIQSNELCSKQLTLSCPLCVNPVCRETKSFFTSQQL
notes: ferrochelatase, human, residues R65 to L423; Eluted as a homodimer (88 kDa); The tag is inferred; no cleavage is described; also called FCH; FECH; source: recombinant expression from pET28a in Luria-Bertani media, purified (cobalt HisTrap, gel filtration)
stoichiometry N [1]: 2
